Data reported in ChEMBL document CHEMBL5143570, “Development of naringenin-O-carbamate derivatives as multi-target-directed liagnds for the treatment of Alzheimer's disease” (Bioorg Med Chem Lett, 2022).
Calls of active or inactive are those of the source. The rule behind the calls is not given here.

What was measured:
L02 [1] = experiment: Hepatoprotective activity against H2O2-induced cytotoxicity in human L02 cells assessed as increase in cell viability at 20 uM by MTT assay; format: functional
[2] = Effect on APP protein expression in pEGFP-N1-APP plasmid transfected mouse HT-22 cells assessed as decrease in fluorescence intensity at 20 uM incubated for 24 hrs by fluorescence microscopic analysis (reference value: 30.7); format: functional
[3] = Effect on tau protein expression in pRK5-GFP-Tau plasmid transfected mouse HT-22 cells assessed as reduction in fluorescence intensity at 5 uM incubated for 24 hrs by fluorescence microscopic analysis (reference value: 36.8); format: functional
Acetylcholinesterase [4] = biological target: T1, Acetylcholinesterase (Homo sapiens, UniProt P22303); experiment: Pseudo-irreversible inhibition of human AChE assessed as restoration of enzyme activity at 0.1 time of IC50 concentration incubated for 120 mins by dilution method relative to control; design: scale not given: the % may be the effect or the level left
T1 sequence (P22303 whole entry): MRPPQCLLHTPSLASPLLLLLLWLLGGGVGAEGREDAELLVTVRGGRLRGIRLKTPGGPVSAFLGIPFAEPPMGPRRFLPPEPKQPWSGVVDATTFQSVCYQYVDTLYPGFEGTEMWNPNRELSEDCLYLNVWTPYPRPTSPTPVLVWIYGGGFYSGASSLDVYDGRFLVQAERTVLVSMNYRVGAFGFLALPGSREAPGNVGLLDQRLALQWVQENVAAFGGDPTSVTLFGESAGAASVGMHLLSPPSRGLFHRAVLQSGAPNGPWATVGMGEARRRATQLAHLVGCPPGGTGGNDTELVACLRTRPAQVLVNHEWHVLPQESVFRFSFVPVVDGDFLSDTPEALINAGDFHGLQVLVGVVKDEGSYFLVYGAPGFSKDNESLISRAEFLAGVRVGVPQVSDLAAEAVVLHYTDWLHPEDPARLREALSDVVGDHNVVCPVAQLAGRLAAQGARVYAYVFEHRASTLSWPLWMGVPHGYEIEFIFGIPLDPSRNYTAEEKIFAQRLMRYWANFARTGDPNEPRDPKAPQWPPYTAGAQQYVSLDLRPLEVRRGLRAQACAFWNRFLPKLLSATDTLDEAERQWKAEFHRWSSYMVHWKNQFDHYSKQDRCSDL

Rattus norvegicus = species: Rattus norvegicus; experiment: Selectivity index, ratio of IC50 for inhibition of rat serum butyrylcholine esterase to IC50 for inhibition of rat cortex AChE
PC-12 [5] = experiment: Neuroprotective activity against H2O2-induced cytotoxicity in rat PC-12 cells assessed as increase in cell viability at 5 uM by MTT assay relative to control; format: functional
Homo sapiens = species: Homo sapiens; experiment: Selectivity index, ratio of IC50 for inhibition of human serum BuChE to IC50 for inhibition of human erythrocyte AChE
Acetylcholinesterase [6] = biological target: T2, Acetylcholinesterase (Rattus norvegicus, UniProt P37136); experiment: Inhibition of rat cortex AChE using acetylthiocholine as substrate incubated for 15 mins by DTNB reagent based Ellman's method; format: tissue-based
T2 sequence (P37136 whole entry): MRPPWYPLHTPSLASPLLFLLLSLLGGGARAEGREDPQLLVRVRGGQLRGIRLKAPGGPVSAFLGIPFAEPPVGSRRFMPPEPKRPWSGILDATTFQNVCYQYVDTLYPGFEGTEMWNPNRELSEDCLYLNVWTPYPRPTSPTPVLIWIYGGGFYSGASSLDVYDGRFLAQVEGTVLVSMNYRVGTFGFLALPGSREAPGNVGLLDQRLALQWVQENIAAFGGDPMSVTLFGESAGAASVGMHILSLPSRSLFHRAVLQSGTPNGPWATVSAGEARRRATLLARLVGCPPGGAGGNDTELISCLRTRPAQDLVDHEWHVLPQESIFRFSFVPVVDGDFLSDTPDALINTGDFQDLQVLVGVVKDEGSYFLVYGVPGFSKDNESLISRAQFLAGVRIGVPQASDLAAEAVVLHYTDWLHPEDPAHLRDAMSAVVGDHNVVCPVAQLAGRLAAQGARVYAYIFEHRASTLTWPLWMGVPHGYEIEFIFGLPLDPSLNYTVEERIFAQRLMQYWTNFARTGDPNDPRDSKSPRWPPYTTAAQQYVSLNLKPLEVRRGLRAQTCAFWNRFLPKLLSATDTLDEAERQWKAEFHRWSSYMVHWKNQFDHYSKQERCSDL

Butyrylcholinesterase = Butyrylcholinesterase (Rattus norvegicus, UniProt Q9JKC1); experiment: Inhibition of rat serum Butyrylcholine esterase using butyrylthiocholine as substrate incubated for 15 mins by DTNB reagent based Ellman's method; format: cell-free
Butyrylcholinesterase, sequence (Q9JKC1 whole entry): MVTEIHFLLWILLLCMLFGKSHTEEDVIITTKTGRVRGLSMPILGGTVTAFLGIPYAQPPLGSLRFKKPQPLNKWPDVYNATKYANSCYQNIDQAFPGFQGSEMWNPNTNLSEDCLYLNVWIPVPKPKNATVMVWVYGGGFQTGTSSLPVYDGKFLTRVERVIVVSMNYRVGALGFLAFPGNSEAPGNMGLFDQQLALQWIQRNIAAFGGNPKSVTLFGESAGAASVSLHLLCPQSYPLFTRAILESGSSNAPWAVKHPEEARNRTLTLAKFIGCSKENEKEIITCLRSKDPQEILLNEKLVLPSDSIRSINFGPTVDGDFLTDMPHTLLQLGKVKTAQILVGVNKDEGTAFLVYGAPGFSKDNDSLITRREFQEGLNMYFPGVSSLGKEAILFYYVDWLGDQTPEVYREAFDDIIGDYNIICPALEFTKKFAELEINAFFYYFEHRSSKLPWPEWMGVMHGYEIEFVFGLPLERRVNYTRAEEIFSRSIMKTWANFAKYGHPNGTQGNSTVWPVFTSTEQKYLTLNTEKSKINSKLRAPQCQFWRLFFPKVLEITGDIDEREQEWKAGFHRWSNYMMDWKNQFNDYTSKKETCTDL

L02 [7] = experiment: Hepatoprotective activity against H2O2-induced cytotoxicity in human L02 cells assessed as increase in cell viability at 10 uM by MTT assay; format: functional
[8] = Effect on tau protein expression in pRK5-GFP-Tau plasmid transfected mouse HT-22 cells assessed as reduction in fluorescence intensity at 20 uM incubated for 24 hrs by fluorescence microscopic analysis (reference value: 36.8); format: functional
[9] = biological target: Amyloid-beta precursor protein (Homo sapiens) (UniProt P05067); experiment: Inhibition of amyloid beta (1 to 42) (unknown origin) self-induced fibril formation at 25 uM incubated for 24 hrs by transmission electron microscopic analysis
Amyloid-beta precursor protein (Homo sapiens), sequence (P05067 whole entry): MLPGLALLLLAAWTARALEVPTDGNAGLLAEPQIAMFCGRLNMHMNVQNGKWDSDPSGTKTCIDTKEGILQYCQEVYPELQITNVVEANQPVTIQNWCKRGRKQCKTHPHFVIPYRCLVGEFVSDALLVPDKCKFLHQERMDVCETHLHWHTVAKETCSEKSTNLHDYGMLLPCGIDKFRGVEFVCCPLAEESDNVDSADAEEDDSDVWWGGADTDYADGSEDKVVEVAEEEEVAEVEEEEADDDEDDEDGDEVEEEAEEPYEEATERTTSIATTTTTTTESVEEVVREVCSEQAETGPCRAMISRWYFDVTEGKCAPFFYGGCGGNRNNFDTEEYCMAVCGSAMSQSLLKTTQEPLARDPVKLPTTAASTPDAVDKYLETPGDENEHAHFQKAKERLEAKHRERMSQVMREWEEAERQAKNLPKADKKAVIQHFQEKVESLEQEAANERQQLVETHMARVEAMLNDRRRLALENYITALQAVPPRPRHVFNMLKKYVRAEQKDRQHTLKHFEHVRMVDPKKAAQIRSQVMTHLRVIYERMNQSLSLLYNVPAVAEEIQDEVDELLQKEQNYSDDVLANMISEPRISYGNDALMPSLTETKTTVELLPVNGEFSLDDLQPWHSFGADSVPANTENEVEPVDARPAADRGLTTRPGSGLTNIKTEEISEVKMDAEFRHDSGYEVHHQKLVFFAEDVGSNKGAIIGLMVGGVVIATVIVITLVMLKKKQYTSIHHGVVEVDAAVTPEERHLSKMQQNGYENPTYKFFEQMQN

[10] = Effect on APP protein expression in pEGFP-N1-APP plasmid transfected mouse HT-22 cells assessed as decrease in fluorescence intensity at 10 uM incubated for 24 hrs by fluorescence microscopic analysis (reference value: 30.7); format: functional
L02 [11] = experiment: Cytotoxicity against human L02 cells assessed as decrease in cell viability measured upto 20 uM by MTT assay; format: toxicity, cell-based; conditions: l02, 20 µM
[12] = biological target: Amyloid-beta precursor protein (Homo sapiens) (UniProt P05067); experiment: Inhibition of Cu2+-induced amyloid beta (1 to 42) (unknown origin) aggregation at 25 uM by thioflavin-T fluorescence method relative to control
[13] = Effect on tau protein expression in pRK5-GFP-Tau P301L plasmid transfected mouse HT-22 cells assessed as reduction in fluorescence intensity at 10 uM by fluorescence microscopic analysis (reference value: 35.0); format: functional
[14] = biological target: Amyloid-beta precursor protein (Homo sapiens) (UniProt P05067); experiment: Disaggregation of Cu2+-induced amyloid beta (1 to 42) (unknown origin) aggregation at 25 uM by thioflavin-T fluorescence method relative to control
[15] = Metal chelating activity assessed as Al3+-compound complex formation by measuring maximum absorption wavelength shift in the presence of AlCl3 by UV-visible spectrometric analysis
BV-2 = experiment: Cytotoxicity against mouse BV-2 cells assessed as increase in cell viability at 5 to 10 uM by MTT assay; format: toxicity, cell-based; conditions: bv-2, 10 µM, dose 5-10 µM
HT-22 [16] = experiment: Effect on tau protein expression in pRK5-GFP-Tau P301L plasmid transfected mouse HT-22 cells assessed as fluorescence intensity by measuring decrease in GFP level by western blot analysis; format: functional, cell-based; conditions: dose 5-20 µM, DDE = dose-dependent effect
[17] = Metal chelating activity assessed as Cu2+-compound complex formation by measuring maximum absorption wavelength shift in the presence of CuCl2 by UV-visible spectrometric analysis
[18] = Inhibition of LPS-induced TNFalpha production in mouse BV-2 cells assessed as TNFalpha level at 5 uM by ELISA analysis; format: functional
[19] = Inhibition of LPS-induced TNFalpha production in mouse BV-2 cells assessed as TNFalpha level at 5 uM by ELISA analysis relative to control; format: functional
Cholinesterase = Cholinesterase (Homo sapiens, UniProt P06276); experiment: Inhibition of human serum BuChE using butyrylthiocholine as substrate incubated for 15 mins by DTNB reagent based Ellman's method; format: cell-free
Cholinesterase, sequence (P06276 whole entry): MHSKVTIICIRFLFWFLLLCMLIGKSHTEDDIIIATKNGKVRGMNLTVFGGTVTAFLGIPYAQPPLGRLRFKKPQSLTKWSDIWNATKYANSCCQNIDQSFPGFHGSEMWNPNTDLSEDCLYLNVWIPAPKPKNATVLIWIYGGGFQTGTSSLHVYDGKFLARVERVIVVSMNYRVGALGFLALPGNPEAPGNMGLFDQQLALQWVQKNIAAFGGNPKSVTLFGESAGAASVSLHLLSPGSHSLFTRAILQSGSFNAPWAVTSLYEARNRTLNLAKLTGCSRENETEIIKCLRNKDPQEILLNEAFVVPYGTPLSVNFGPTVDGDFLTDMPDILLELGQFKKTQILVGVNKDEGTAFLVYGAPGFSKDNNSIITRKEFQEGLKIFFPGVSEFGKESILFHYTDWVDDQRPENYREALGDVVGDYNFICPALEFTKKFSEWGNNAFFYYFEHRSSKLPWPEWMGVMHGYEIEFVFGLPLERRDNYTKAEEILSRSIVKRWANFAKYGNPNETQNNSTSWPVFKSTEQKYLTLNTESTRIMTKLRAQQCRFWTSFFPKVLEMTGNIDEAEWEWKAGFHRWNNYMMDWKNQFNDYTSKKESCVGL

[20] = Effect on APP protein expression in pEGFP-N1-APP plasmid transfected mouse HT-22 cells assessed as decrease in fluorescence intensity at 5 uM incubated for 24 hrs by fluorescence microscopic analysis (reference value: 30.7); format: functional
HT-22 [21] = experiment: Effect on tau protein expression in pRK5-GFP-Tau plasmid transfected mouse HT-22 cells assessed as fluorescence intensity by measuring decrease in GFP level incubated for 24 hrs by western blot analysis; format: functional, cell-based; conditions: dose 5-20 µM, DDE = dose-dependent effect
Acetylcholinesterase [22] = biological target: T1, Acetylcholinesterase; experiment: Inhibition of human erythrocyte AChE using acetylthiocholine as substrate incubated for 15 mins by DTNB reagent based Ellman's method; format: cell-based
PC-12 [23] = experiment: Neuroprotective activity against H2O2-induced cytotoxicity in rat PC-12 cells assessed as increase in cell viability at 10 uM by MTT assay relative to control; format: functional
[24] = Inhibition of LPS-induced NO production in mouse BV-2 cells at 10 uM by Griess reaction method relative to control; format: functional
[25] = Cytotoxicity against mouse HT-22 cells assessed as reduction in cell viability by MTT assay; format: toxicity, cell-based

## CCN(C)C(=O)Oc1ccc(C2CC(=O)c3c(O)cc(OC(=O)N(C)CC)cc3O2)cc1 (stereo not given)
L02 [1]
  Activity: 77.3%
[2]
  Flu intensity: 15.5
[3]
  Flu intensity: 25.9
Acetylcholinesterase [4]
  Activity: 81.7%
Rattus norvegicus
  Ratio IC50: 4.9
PC-12 [5]
  Activity: 63.8%
Homo sapiens
  Ratio IC50: 2.1
Acetylcholinesterase [6]
  IC50: 6.2 µM
Butyrylcholinesterase
  IC50: 30.6 µM
L02 [7]
  Activity: 68.7%
[8]
  Flu intensity: 6.48
[9]
  inhibition: Active
[10]
  Flu intensity: 15.5
L02 [11]
  Activity: Non-Toxic
[12]
  inhibition: 66.5%
[13]
  Flu intensity: 9.28
[14]
  Activity: 54.4%
[15]
  Activity: Active
BV-2
  Activity: Non-Toxic
HT-22 [16]
  Activity: Dde
[17]
  Activity: Active
[18]
  Activity: 848 pg/mL
[19]
  inhibition at 5 µM: 50.1%
Cholinesterase
  IC50: 20.3 µM
[20]
  Flu intensity: 21.9
HT-22 [21]
  Activity: Dde
Acetylcholinesterase [22]
  IC50: 9.7 µM
PC-12 [23]
  Activity: 70.2%
[24]
  inhibition at 10 µM: 55.6%
[25]
  IC50: 289 µM
